{"source": "ChEMBL document CHEMBL4507320", "about": "“Data for DCP probe NVS-MALT1” (2021)", "key": {"[1]": {"target": "T1, Mucosa-associated lymphoid tissue lymphoma translocation protein 1 (Homo sapiens, UniProt Q9UDY8)", "T1 sequence (Q9UDY8 whole entry)": "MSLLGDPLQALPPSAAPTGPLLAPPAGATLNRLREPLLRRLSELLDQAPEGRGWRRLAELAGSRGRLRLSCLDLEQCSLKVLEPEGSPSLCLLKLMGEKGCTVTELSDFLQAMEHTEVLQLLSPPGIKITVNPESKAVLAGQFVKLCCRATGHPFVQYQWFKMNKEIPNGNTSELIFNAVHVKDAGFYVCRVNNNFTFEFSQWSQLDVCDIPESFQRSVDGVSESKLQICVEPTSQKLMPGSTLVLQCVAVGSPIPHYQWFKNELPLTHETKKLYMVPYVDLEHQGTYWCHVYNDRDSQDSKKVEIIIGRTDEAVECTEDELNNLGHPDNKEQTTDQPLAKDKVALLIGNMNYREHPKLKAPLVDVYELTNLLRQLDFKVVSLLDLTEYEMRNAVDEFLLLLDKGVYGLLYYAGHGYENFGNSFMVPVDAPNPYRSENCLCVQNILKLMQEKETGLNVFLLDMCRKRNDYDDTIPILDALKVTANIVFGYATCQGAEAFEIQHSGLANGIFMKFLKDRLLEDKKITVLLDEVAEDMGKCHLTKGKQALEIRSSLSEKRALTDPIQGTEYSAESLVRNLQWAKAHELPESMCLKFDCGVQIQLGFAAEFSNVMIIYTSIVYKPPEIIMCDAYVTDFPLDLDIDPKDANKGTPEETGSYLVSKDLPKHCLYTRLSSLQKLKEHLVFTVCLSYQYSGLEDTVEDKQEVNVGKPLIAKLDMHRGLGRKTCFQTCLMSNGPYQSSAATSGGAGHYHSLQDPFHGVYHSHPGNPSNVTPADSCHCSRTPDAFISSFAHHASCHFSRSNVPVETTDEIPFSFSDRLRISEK", "experiment": "Human biochemical (TR-FRET) assay (high salt)"}, "[2]": {"test_system": "Tyrosine-protein kinase ABL1 (Homo sapiens), P00519 [F317L]", "settings": "Compound concentration 1000.0 nM"}, "[3]": {"target": "Tyrosine-protein kinase ABL2 (Homo sapiens) (UniProt P42684)", "settings": "Compound concentration 1000.0 nM"}, "[4]": {"target": "Cyclin-dependent kinase 4 (Homo sapiens) (UniProt P11802)", "settings": "Compound concentration 1000.0 nM"}, "[5]": {"target": "Casein kinase II subunit alpha' (Homo sapiens) (UniProt P19784)", "settings": "Compound concentration 1000.0 nM"}, "[6]": {"target": "Death-associated protein kinase 1 (Homo sapiens) (UniProt P53355)", "settings": "Compound concentration 1000.0 nM"}, "[7]": {"target": "Dual specificity tyrosine-phosphorylation-regulated kinase 1A (Homo sapiens) (UniProt Q13627)", "settings": "Compound concentration 1000.0 nM"}, "[8]": {"target": "Ephrin type-A receptor 2 (Homo sapiens) (UniProt P29317)", "settings": "Compound concentration 1000.0 nM"}, "[9]": {"target": "Ephrin type-A receptor 4 (Homo sapiens) (UniProt P54764)", "settings": "Compound concentration 1000.0 nM"}, "[10]": {"target": "Fibroblast growth factor receptor 1 (Homo sapiens) (UniProt P11362)", "settings": "Compound concentration 1000.0 nM"}, "[11]": {"test_system": "Receptor-type tyrosine-protein kinase FLT3 (Homo sapiens), P36888 [UNDEFINED MUTATION]", "sequence (P36888 whole entry, looked up, change not shown)": "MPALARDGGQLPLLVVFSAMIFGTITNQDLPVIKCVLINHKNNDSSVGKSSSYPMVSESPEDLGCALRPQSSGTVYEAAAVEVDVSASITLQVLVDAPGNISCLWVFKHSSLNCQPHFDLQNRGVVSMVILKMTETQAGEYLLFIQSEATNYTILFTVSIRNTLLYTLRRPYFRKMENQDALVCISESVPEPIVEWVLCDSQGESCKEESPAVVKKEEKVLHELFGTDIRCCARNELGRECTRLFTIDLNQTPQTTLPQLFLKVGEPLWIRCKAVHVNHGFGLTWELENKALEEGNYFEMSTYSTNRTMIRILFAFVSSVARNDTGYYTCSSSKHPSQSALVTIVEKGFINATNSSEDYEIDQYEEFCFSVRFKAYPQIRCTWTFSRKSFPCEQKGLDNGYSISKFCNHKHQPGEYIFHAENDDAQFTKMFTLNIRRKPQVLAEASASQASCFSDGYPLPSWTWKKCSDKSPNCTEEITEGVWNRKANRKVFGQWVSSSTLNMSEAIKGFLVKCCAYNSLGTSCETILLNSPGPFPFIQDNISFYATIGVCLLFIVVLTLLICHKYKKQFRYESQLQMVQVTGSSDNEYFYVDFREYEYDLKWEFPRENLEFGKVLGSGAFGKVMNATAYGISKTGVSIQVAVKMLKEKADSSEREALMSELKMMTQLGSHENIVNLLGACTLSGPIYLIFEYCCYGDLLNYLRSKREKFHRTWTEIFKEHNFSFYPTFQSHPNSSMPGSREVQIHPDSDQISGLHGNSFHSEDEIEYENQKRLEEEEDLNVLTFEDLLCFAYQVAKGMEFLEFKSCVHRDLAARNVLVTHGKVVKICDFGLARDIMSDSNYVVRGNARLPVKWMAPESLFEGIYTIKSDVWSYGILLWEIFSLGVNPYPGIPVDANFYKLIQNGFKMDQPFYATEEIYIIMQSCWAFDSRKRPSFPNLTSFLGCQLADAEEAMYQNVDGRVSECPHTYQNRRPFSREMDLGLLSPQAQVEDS", "settings": "Compound concentration 1000.0 nM"}, "[12]": {"test_system": "Receptor-type tyrosine-protein kinase FLT3 (Homo sapiens), P36888 [UNDEFINED MUTATION]", "settings": "Compound concentration 1000.0 nM", "remark": "listed apart in the source"}, "[13]": {"target": "Homeodomain-interacting protein kinase 3 (Homo sapiens) (UniProt Q9H422)", "settings": "Compound concentration 1000.0 nM"}, "[14]": {"test_system": "Mast/stem cell growth factor receptor Kit (Homo sapiens), P10721 [D816V]", "settings": "Compound concentration 1000.0 nM"}, "[15]": {"target": "Serine/threonine-protein kinase STK11 (Homo sapiens) (UniProt Q15831)", "settings": "Compound concentration 1000.0 nM"}, "[16]": {"target": "Serine/threonine-protein kinase MARK1 (Homo sapiens) (UniProt Q9P0L2)", "settings": "Compound concentration 1000.0 nM"}, "[17]": {"target": "Serine/threonine-protein kinase Nek7 (Homo sapiens) (UniProt Q8TDX7)", "sequence (Q8TDX7 whole entry, looked up)": "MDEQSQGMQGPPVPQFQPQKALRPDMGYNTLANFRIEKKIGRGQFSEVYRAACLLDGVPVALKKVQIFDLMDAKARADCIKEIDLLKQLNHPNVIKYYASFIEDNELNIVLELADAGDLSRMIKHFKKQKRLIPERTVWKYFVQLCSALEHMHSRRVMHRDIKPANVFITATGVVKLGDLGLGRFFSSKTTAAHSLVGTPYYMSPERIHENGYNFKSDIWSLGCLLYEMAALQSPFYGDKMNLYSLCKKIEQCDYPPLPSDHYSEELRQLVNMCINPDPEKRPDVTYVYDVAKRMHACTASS", "settings": "Compound concentration 1000.0 nM"}, "[18]": {"target": "Serine/threonine-protein kinase PAK 4 (Homo sapiens) (UniProt O96013)", "settings": "Compound concentration 1000.0 nM"}, "[19]": {"target": "Phosphorylase b kinase gamma catalytic chain, skeletal muscle/heart isoform (Homo sapiens) (UniProt Q16816)", "settings": "Compound concentration 1000.0 nM"}, "[20]": {"test_system": "Phosphatidylinositol 4,5-bisphosphate 3-kinase catalytic subunit alpha isoform (Homo sapiens), P42336 [E545A]", "settings": "Compound concentration 1000.0 nM"}, "[21]": {"target": "cGMP-dependent protein kinase 1 (Homo sapiens) (UniProt Q13976)", "sequence (Q13976 whole entry)": "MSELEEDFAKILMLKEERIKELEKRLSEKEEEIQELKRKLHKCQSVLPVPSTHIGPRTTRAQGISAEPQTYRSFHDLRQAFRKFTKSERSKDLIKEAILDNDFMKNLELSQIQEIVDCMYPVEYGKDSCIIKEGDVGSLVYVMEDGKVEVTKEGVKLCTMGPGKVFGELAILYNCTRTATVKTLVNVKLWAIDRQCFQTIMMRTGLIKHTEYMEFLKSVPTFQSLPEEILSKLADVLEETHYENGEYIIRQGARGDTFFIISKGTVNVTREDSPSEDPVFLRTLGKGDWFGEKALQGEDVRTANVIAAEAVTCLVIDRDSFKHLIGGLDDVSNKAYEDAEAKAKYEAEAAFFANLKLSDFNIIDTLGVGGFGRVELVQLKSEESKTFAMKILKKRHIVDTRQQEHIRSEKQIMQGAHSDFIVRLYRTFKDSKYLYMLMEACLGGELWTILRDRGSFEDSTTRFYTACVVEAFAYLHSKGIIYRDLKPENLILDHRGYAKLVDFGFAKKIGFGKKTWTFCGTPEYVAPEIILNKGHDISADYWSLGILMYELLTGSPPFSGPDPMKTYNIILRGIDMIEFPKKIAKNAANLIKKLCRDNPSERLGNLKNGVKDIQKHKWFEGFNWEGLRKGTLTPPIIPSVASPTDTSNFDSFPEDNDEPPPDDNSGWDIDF", "settings": "Compound concentration 1000.0 nM"}, "[22]": {"target": "Receptor-interacting serine/threonine-protein kinase 2 (Homo sapiens) (UniProt O43353)", "sequence (O43353 whole entry)": "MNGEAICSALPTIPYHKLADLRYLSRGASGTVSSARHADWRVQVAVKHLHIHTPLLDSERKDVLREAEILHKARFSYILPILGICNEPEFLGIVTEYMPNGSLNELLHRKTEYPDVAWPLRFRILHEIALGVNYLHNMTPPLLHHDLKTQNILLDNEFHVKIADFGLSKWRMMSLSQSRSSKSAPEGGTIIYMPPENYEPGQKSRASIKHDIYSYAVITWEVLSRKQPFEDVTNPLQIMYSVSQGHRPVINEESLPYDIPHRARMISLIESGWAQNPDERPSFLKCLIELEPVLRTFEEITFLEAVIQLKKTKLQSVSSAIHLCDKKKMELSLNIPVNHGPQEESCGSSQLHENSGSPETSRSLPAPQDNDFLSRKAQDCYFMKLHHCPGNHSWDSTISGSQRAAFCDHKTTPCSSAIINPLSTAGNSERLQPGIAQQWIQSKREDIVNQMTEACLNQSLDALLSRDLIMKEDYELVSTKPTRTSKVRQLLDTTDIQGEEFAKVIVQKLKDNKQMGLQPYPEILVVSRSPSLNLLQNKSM", "settings": "Compound concentration 1000.0 nM"}, "[23]": {"target": "STE20-like serine/threonine-protein kinase (Homo sapiens) (UniProt Q9H2G2)", "settings": "Compound concentration 1000.0 nM"}, "[24]": {"target": "SRSF protein kinase 3 (Homo sapiens) (UniProt Q9UPE1)", "sequence (Q9UPE1 whole entry)": "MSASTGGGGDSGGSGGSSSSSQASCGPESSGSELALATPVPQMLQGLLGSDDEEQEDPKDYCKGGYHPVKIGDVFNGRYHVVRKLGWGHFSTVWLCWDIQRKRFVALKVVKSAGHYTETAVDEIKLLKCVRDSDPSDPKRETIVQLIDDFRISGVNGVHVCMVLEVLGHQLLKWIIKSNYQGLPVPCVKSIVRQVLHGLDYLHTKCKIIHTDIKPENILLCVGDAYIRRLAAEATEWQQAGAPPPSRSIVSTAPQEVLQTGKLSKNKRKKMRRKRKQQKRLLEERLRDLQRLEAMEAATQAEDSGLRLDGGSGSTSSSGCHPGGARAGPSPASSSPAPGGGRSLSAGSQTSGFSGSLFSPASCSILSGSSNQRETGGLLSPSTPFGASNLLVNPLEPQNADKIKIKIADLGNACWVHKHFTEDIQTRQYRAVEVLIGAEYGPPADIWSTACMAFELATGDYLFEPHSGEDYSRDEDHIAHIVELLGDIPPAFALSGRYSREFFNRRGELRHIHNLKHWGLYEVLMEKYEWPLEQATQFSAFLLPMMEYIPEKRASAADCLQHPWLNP", "settings": "Compound concentration 1000.0 nM"}, "[25]": {"target": "Tyrosine-protein kinase Tec (Homo sapiens) (UniProt P42680)", "settings": "Compound concentration 1000.0 nM"}, "[26]": {"target": "Serine/threonine-protein kinase TNNI3K (Homo sapiens) (UniProt Q59H18)", "settings": "Compound concentration 1000.0 nM"}, "[27]": {"target": "Transient receptor potential cation channel subfamily M member 6 (Homo sapiens) (UniProt Q9BX84)", "sequence (Q9BX84 whole entry)": "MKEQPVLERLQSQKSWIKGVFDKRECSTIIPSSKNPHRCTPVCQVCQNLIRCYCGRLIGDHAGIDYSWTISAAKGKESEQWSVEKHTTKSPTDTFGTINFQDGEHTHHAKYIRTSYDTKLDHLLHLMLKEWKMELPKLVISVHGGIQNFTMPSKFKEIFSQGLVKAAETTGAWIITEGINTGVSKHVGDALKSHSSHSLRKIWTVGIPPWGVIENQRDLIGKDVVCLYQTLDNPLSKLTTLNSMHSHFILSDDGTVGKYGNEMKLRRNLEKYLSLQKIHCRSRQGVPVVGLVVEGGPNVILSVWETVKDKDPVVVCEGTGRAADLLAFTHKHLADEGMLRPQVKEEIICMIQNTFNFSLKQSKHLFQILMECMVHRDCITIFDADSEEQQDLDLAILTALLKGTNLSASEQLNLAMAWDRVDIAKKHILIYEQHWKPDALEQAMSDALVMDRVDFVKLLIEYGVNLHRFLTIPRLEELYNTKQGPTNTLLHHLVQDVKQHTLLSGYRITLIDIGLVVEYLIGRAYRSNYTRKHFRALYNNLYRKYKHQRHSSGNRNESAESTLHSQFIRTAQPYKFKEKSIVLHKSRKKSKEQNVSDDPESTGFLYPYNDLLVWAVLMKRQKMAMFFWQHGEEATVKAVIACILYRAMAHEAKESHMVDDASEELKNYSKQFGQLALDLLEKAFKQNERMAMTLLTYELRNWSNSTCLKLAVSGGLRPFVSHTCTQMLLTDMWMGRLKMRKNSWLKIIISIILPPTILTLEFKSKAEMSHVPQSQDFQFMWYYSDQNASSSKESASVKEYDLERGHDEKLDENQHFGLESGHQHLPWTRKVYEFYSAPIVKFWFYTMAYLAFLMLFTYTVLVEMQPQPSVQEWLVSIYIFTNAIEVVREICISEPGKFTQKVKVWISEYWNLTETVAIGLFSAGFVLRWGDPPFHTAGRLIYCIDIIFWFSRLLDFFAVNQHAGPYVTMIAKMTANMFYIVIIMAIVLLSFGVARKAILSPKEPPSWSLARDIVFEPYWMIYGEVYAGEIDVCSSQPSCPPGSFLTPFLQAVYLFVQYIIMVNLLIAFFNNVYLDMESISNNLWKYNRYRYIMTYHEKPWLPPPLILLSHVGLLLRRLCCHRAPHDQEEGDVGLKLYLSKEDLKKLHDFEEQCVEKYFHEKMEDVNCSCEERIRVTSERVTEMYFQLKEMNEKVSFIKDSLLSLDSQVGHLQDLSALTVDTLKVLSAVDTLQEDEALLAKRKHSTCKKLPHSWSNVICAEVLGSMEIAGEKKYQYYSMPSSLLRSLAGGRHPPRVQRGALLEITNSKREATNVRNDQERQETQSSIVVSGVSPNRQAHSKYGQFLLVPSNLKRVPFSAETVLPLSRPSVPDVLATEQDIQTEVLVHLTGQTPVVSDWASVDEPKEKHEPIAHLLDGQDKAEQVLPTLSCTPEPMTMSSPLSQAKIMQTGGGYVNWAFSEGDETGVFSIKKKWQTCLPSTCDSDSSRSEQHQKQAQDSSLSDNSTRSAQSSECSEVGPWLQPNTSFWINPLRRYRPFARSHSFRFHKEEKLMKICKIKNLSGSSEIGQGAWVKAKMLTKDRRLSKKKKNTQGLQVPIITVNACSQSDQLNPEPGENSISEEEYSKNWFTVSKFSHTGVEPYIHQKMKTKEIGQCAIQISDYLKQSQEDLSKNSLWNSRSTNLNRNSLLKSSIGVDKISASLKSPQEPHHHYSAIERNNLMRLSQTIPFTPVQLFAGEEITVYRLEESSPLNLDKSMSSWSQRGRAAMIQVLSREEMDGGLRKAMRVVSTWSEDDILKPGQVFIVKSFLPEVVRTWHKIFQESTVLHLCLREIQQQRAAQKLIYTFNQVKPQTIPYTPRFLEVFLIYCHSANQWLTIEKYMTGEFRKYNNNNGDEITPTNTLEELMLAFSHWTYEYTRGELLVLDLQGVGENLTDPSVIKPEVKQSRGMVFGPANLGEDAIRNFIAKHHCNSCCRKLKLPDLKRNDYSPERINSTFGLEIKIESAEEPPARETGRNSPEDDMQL", "settings": "Compound concentration 1000.0 nM"}, "[28]": {"target": "Tyrosine-protein kinase receptor TYRO3 (Homo sapiens) (UniProt Q06418)", "settings": "Compound concentration 1000.0 nM"}, "[29]": {"target": "Vascular endothelial growth factor receptor 2 (Homo sapiens) (UniProt P35968)", "settings": "Compound concentration 1000.0 nM"}, "[30]": {"target": "Mitogen-activated protein kinase kinase kinase 19 (Homo sapiens) (UniProt Q56UN5)", "settings": "Compound concentration 1000.0 nM"}, "[31]": {"target": "D(2) dopamine receptor (Homo sapiens) (UniProt P14416)", "settings": "Compound concentration 10.0 uM"}, "[32]": {"target": "GABA-A receptor; anion channel (Rattus norvegicus) (UniProt O09028+P15431+P18506+P18508+P19969+P20236+P23574+P23576+P28471+P28473+P30191+P62813+P63079+P63138+Q91ZM7+Q9ES14)", "settings": "Compound concentration 10.0 uM"}}, "note": "The source made the active and inactive calls. The calls are words filed in the database; no cut-off is given here.", "data": [{"smiles": "CO[C@@H](C)c1c(Nc2ccc([C@H](N(C)C(=O)C3CCS(=O)(=O)CC3)C(F)(F)F)cc2)cnc2cc(Cl)nn12", "note": "[NVS-MALT1]", "values": [{"measurement": "IC50", "setting": "[1]", "result": "2.4 nM (active)"}, {"measurement": "residual activity", "setting": "[2]", "result": 89, "unit": "%"}, {"measurement": "residual activity", "setting": "[3]", "result": 85, "unit": "%"}, {"measurement": "residual activity", "setting": "[4]", "result": 100, "unit": "%"}, {"measurement": "residual activity", "setting": "[5]", "result": 100, "unit": "%"}, {"measurement": "residual activity", "setting": "[6]", "result": 88, "unit": "%"}, {"measurement": "residual activity", "setting": "[7]", "result": 75, "unit": "%"}, {"measurement": "residual activity", "setting": "[8]", "result": 100, "unit": "%"}, {"measurement": "residual activity", "setting": "[9]", "result": 83, "unit": "%"}, {"measurement": "residual activity", "setting": "[10]", "result": 74, "unit": "%"}, {"measurement": "residual activity", "setting": "[11]", "result": 71, "unit": "%"}, {"measurement": "residual activity", "setting": "[12]", "result": 90, "unit": "%"}, {"measurement": "residual activity", "setting": "[13]", "result": 100, "unit": "%"}, {"measurement": "residual activity", "setting": "[14]", "result": 96, "unit": "%"}, {"measurement": "residual activity", "setting": "[15]", "result": 68, "unit": "%"}, {"measurement": "residual activity", "setting": "[16]", "result": 69, "unit": "%"}, {"measurement": "residual activity", "setting": "[17]", "result": 75, "unit": "%"}, {"measurement": "residual activity", "setting": "[18]", "result": 95, "unit": "%"}, {"measurement": "residual activity", "setting": "[19]", "result": 93, "unit": "%"}, {"measurement": "residual activity", "setting": "[20]", "result": 65, "unit": "%"}, {"measurement": "residual activity", "setting": "[21]", "result": 85, "unit": "%"}, {"measurement": "residual activity", "setting": "[22]", "result": 74, "unit": "%"}, {"measurement": "residual activity", "setting": "[23]", "result": 81, "unit": "%"}, {"measurement": "residual activity", "setting": "[24]", "result": 100, "unit": "%"}, {"measurement": "residual activity", "setting": "[25]", "result": 84, "unit": "%"}, {"measurement": "residual activity", "setting": "[26]", "result": 73, "unit": "%"}, {"measurement": "residual activity", "setting": "[27]", "result": 100, "unit": "%"}, {"measurement": "residual activity", "setting": "[28]", "result": 100, "unit": "%"}, {"measurement": "residual activity", "setting": "[29]", "result": 100, "unit": "%"}, {"measurement": "residual activity", "setting": "[30]", "result": 91, "unit": "%"}, {"measurement": "inhibition", "setting": "[31]", "result": 4.1, "unit": "%"}, {"measurement": "inhibition", "setting": "[32]", "result": 27.9, "unit": "%"}]}, {"smiles": "CO[C@@H](C)c1c(Nc2ccc([C@@H](N(C)C(=O)C3CCS(=O)(=O)CC3)C(F)(F)F)cc2)cnc2cc(Cl)nn12", "note": "[NVS-MALT1-C]", "values": [{"measurement": "IC50", "setting": "[1]", "result": "190 nM (active)"}, {"measurement": "residual activity", "setting": "[2]", "result": 89, "unit": "%"}, {"measurement": "residual activity", "setting": "[3]", "result": 84, "unit": "%"}, {"measurement": "residual activity", "setting": "[4]", "result": 100, "unit": "%"}, {"measurement": "residual activity", "setting": "[5]", "result": 100, "unit": "%"}, {"measurement": "residual activity", "setting": "[6]", "result": 89, "unit": "%"}, {"measurement": "residual activity", "setting": "[7]", "result": 92, "unit": "%"}, {"measurement": "residual activity", "setting": "[8]", "result": 83, "unit": "%"}, {"measurement": "residual activity", "setting": "[9]", "result": 100, "unit": "%"}, {"measurement": "residual activity", "setting": "[10]", "result": 91, "unit": "%"}, {"measurement": "residual activity", "setting": "[11]", "result": 66, "unit": "%"}, {"measurement": "residual activity", "setting": "[12]", "result": 87, "unit": "%"}, {"measurement": "residual activity", "setting": "[13]", "result": 100, "unit": "%"}, {"measurement": "residual activity", "setting": "[14]", "result": 99, "unit": "%"}, {"measurement": "residual activity", "setting": "[15]", "result": 78, "unit": "%"}, {"measurement": "residual activity", "setting": "[16]", "result": 81, "unit": "%"}, {"measurement": "residual activity", "setting": "[17]", "result": 91, "unit": "%"}, {"measurement": "residual activity", "setting": "[18]", "result": 100, "unit": "%"}, {"measurement": "residual activity", "setting": "[19]", "result": 96, "unit": "%"}, {"measurement": "residual activity", "setting": "[20]", "result": 77, "unit": "%"}, {"measurement": "residual activity", "setting": "[21]", "result": 92, "unit": "%"}, {"measurement": "residual activity", "setting": "[22]", "result": 83, "unit": "%"}, {"measurement": "residual activity", "setting": "[23]", "result": 83, "unit": "%"}, {"measurement": "residual activity", "setting": "[24]", "result": 100, "unit": "%"}, {"measurement": "residual activity", "setting": "[25]", "result": 82, "unit": "%"}, {"measurement": "residual activity", "setting": "[26]", "result": 91, "unit": "%"}, {"measurement": "residual activity", "setting": "[27]", "result": 100, "unit": "%"}, {"measurement": "residual activity", "setting": "[28]", "result": 99, "unit": "%"}, {"measurement": "residual activity", "setting": "[29]", "result": 95, "unit": "%"}, {"measurement": "residual activity", "setting": "[30]", "result": 77, "unit": "%"}, {"measurement": "inhibition", "setting": "[31]", "result": -4.3, "unit": "%"}, {"measurement": "inhibition", "setting": "[32]", "result": 19.2, "unit": "%"}]}]}
